# Experimental data reported in patent US20230074545A1, “TREATMENT OF CANCER WITH CDK12/13 INHIBITORS” (Kinnate Biopharma Inc., priority 2019, published 2023).
# What was measured:
# Experiment in all cases: Radiometric kinase panel
# Assay type in all cases: biochemical
# FLT3 = molecular target: T1, FLT3 (Homo sapiens, UniProt P36888)
# T1 construct: either as full-length or enzymatically active fragments; purchased ProQinase GmbH (Reaction Biology)
# Method in brief: (§1)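 Activity was measured radiometrically from [gamma-33P]-ATP incorporation into substrate. The kinases were recombinant human GST- or His-tagged proteins, full-length or active fragments, expressed in Sf9 or E. coli. Compound in 10% DMSO was added before the enzyme/substrate mix, which started the reaction.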
# NEK11 = molecular target: T2, NEK11 (Homo sapiens, UniProt Q8NG66)
# T2 construct: either as full-length or enzymatically active fragments; purchased ProQinase GmbH (Reaction Biology)
# Method in brief: as §1
# CHK1 = molecular target: T3, CHK1 (Homo sapiens, UniProt O14757)
# T3 construct: either as full-length or enzymatically active fragments; purchased ProQinase GmbH (Reaction Biology)
# Method in brief: as §1
# TGFBR2 = molecular target: T4, TGFBR2 (Homo sapiens, UniProt P37173)
# T4 construct: either as full-length or enzymatically active fragments; purchased ProQinase GmbH (Reaction Biology)
# Method in brief: as §1
# RON = molecular target: T5, RON (Homo sapiens, UniProt Q04912)
# T5 construct: purchased ProQinase GmbH (Reaction Biology)
# Method in brief: as §1
# MARK3 = molecular target: T6, MARK3 (Homo sapiens, UniProt P27448)
# T6 construct: either as full-length or enzymatically active fragments; purchased ProQinase GmbH (Reaction Biology); host or cells: Sf9 insect cells or E. coli
# Method in brief: as §1
# RIPK5 = molecular target: T7, RIPK5 (Homo sapiens, UniProt Q6XUX3)
# T7 construct: purchased ProQinase GmbH (Reaction Biology)
# Method in brief: as §1
# CLK4 = molecular target: T8, CLK4 (Homo sapiens, UniProt Q9HAZ1)
# T8 construct: purchased ProQinase GmbH (Reaction Biology)
# Method in brief: as §1
# VEGFR1 = molecular target: T9, VEGFR1 (Homo sapiens, UniProt P17948)
# T9 construct: either as full-length or enzymatically active fragments; purchased ProQinase GmbH (Reaction Biology); host or cells: Sf9 insect cells or E. coli (not specified per kinase)
# Method in brief: as §1
# CDK9/CycK = molecular target: T10, CDK9/CycK (Homo sapiens, UniProt P50750)
# T10 construct: either as full-length or enzymatically active fragments; purchased ProQinase GmbH (Reaction Biology)
# Method in brief: as §1
# BMX = molecular target: T11, BMX (Homo sapiens, UniProt P51813)
# T11 construct: either as full-length or enzymatically active fragments; purchased ProQinase GmbH (Reaction Biology)
# Method in brief: as §1
# CK1epsilon = molecular target: T12, CK1epsilon (Homo sapiens, UniProt P49674)
# T12 construct: either as full-length or enzymatically active fragments; purchased ProQinase GmbH (Reaction Biology)
# Method in brief: as §1
# IGF1R = molecular target: T13, IGF1R (Homo sapiens, UniProt P08069)
# T13 construct: either as full-length or enzymatically active fragments; purchased ProQinase GmbH (Reaction Biology); host or cells: Sf9 insect cells or E. coli
# Method in brief: as §1
# AKT2 = molecular target: T14, AKT2 (Homo sapiens, UniProt P31751)
# T14 construct: either as full-length or enzymatically active fragments; purchased ProQinase GmbH (Reaction Biology); host or cells: Sf9 insect cells or E. coli (not specified per kinase)
# Method in brief: as §1
# EPHA4 = molecular target: T15, EPHA4 (Homo sapiens, UniProt P54764)
# T15 construct: either as full-length or enzymatically active fragments; purchased ProQinase GmbH (Reaction Biology)
# Method in brief: as §1
# GRK2 = molecular target: T16, GRK2 (Homo sapiens, UniProt P25098)
# T16 construct: either as full-length or enzymatically active fragments; purchased ProQinase GmbH (Reaction Biology)
# Method in brief: as §1
# TTBK2 = molecular target: T17, TTBK2 (Homo sapiens, UniProt Q6IQ55)
# T17 construct: either as full-length or enzymatically active fragments; purchased ProQinase GmbH (Reaction Biology)
# Method in brief: as §1
# EPHA7 = molecular target: T18, EPHA7 (Homo sapiens, UniProt Q15375)
# T18 construct: either as full-length or enzymatically active fragments; purchased ProQinase GmbH (Reaction Biology)
# Method in brief: as §1
# MEK1 = molecular target: T19, MEK1 (Homo sapiens, UniProt Q02750)
# T19 construct: either as full-length or enzymatically active fragments; purchased ProQinase GmbH (Reaction Biology); host or cells: Sf9 insect cells or E. coli
# Method in brief: as §1
# PKN3 = molecular target: T20, PKN3 (Homo sapiens, UniProt Q6P5Z2)
# T20 construct: purchased ProQinase GmbH (Reaction Biology)
# Method in brief: as §1
# TTBK1 = molecular target: T21, TTBK1 (Homo sapiens, UniProt Q5TCY1)
# T21 construct: either as full-length or enzymatically active fragments; purchased ProQinase GmbH (Reaction Biology)
# Method in brief: as §1
# EIF2AK3 = molecular target: T22, EIF2AK3 (Homo sapiens, UniProt Q9NZJ5)
# T22 construct: either as full-length or enzymatically active fragments; purchased ProQinase GmbH (Reaction Biology); host or cells: Sf9 insect cells or E. coli
# Method in brief: as §1
# HRI = molecular target: T23, HRI (Homo sapiens, UniProt Q9BQI3)
# T23 construct: either as full-length or enzymatically active fragments; purchased ProQinase GmbH (Reaction Biology)
# Method in brief: as §1
# FGFR1 = molecular target: T24, FGFR1 (Homo sapiens, UniProt P11362)
# T24 construct: either as full-length or enzymatically active fragments; purchased ProQinase GmbH (Reaction Biology)
# Method in brief: as §1
# PDGFRalpha = molecular target: T25, PDGFRalpha (Homo sapiens, UniProt P16234)
# T25 construct: either as full-length or enzymatically active fragments; purchased ProQinase GmbH (Reaction Biology)
# Method in brief: as §1
# EPHA2 = molecular target: T26, EPHA2 (Homo sapiens, UniProt P29317)
# T26 construct: either as full-length or enzymatically active fragments; purchased ProQinase GmbH (Reaction Biology)
# Method in brief: as §1
# CK1delta = molecular target: T27, CK1delta (Homo sapiens, UniProt P48730)
# T27 construct: either as full-length or enzymatically active fragments; purchased ProQinase GmbH (Reaction Biology)
# Method in brief: as §1
# CDK5/p25NCK = molecular target: T28, CDK5/p25NCK (Homo sapiens, UniProt Q00535)
# T28 construct: either as full-length or enzymatically active fragments; purchased ProQinase GmbH (Reaction Biology)
# Method in brief: as §1
# MATK = molecular target: T29, MATK (Homo sapiens, UniProt P42679)
# T29 construct: purchased ProQinase GmbH (Reaction Biology)
# Method in brief: as §1
# TAOK3 = molecular target: T30, TAOK3 (Homo sapiens, UniProt Q9H2K8)
# T30 construct: either as full-length or enzymatically active fragments; purchased ProQinase GmbH (Reaction Biology)
# Method in brief: as §1
# BUB1B = molecular target: T31, BUB1B (Homo sapiens, UniProt O60566)
# T31 construct: either as full-length or enzymatically active fragments; purchased ProQinase GmbH (Reaction Biology); host or cells: Sf9 insect cells or E. coli
# Method in brief: as §1
# T28 sequence (Q00535 whole entry, the tested form may be a part): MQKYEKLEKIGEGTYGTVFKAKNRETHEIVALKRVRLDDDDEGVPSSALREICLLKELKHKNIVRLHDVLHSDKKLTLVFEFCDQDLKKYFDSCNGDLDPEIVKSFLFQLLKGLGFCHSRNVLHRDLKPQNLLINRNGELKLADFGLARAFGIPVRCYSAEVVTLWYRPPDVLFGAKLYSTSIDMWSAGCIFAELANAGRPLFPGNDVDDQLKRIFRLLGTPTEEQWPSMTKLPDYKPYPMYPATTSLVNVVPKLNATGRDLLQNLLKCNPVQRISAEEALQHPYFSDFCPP
# T28 sequence (Q15078 99-307 partner limits assumed): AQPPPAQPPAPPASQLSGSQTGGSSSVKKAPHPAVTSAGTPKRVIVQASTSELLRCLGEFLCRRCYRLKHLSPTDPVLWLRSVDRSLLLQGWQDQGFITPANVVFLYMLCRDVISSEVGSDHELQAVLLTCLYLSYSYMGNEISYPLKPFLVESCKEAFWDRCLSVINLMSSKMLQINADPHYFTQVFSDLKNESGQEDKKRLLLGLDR
# T3 sequence (O14757 whole entry, the tested form may be a part): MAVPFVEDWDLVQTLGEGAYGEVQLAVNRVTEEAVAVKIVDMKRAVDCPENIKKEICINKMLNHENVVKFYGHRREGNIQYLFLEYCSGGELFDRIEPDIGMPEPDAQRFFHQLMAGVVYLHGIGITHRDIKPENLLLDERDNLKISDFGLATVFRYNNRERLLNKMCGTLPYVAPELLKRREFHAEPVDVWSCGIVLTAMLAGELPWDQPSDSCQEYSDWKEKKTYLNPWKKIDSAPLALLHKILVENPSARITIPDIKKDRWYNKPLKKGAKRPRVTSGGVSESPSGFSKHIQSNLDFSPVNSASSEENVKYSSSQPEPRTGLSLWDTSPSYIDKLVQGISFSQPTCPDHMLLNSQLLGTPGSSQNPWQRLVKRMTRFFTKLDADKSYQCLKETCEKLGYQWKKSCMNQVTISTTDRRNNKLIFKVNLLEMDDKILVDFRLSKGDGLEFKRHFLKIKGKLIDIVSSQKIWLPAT
# T31 sequence (O60566 whole entry, the tested form may be a part): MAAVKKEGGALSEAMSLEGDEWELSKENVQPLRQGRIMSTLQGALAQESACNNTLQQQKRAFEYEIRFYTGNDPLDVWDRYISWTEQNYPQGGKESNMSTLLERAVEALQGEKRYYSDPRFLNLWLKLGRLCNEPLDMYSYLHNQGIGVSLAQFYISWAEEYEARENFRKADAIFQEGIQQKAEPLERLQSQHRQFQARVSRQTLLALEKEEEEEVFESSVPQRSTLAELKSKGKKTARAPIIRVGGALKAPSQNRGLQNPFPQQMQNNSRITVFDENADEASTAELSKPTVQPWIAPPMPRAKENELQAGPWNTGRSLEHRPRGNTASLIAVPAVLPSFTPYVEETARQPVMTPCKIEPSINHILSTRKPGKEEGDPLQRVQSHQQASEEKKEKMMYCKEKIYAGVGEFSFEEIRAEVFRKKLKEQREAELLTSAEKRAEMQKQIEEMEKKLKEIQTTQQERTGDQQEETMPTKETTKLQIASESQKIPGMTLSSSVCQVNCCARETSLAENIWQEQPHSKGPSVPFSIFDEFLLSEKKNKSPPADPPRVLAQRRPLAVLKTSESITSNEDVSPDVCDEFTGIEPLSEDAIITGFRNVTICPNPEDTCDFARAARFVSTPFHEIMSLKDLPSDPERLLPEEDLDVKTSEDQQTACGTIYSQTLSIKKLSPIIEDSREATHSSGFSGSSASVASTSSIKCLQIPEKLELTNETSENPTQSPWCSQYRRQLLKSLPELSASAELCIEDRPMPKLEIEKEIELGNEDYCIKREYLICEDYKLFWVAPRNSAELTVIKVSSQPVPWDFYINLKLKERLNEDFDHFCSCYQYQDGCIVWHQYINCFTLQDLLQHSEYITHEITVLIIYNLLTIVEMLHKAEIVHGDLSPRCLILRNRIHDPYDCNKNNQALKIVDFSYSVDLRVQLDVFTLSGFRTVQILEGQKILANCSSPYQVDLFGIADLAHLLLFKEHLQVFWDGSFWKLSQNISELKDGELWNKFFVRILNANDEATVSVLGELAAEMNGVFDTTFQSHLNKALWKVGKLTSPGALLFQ
# T10 sequence (P50750 whole entry, the tested form may be a part): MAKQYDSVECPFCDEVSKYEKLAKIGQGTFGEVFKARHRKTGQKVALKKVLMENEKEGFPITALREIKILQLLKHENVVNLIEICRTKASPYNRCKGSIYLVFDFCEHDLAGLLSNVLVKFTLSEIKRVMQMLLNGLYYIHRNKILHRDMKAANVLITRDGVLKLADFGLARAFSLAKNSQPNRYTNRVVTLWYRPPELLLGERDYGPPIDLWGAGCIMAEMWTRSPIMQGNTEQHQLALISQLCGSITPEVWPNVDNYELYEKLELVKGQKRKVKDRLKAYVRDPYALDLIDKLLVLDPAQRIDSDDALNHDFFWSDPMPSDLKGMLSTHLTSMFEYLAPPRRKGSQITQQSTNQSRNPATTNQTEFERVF
# T10 sequence (O75909 whole entry partner, the tested form may be a part): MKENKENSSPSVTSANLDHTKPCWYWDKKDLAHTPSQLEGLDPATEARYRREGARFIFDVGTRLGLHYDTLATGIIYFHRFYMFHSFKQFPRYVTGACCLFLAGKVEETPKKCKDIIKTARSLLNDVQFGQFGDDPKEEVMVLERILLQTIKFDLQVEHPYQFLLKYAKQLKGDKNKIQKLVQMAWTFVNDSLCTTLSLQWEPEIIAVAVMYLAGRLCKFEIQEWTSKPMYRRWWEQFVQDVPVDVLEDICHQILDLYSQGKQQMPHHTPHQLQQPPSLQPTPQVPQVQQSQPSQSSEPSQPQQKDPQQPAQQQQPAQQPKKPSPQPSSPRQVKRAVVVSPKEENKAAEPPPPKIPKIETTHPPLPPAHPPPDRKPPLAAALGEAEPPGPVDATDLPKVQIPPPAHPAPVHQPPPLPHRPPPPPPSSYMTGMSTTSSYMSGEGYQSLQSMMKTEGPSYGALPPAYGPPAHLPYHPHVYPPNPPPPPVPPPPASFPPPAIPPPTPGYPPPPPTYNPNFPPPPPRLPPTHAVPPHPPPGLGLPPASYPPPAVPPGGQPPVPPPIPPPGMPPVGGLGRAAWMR
# T23 sequence (Q9BQI3 whole entry, the tested form may be a part): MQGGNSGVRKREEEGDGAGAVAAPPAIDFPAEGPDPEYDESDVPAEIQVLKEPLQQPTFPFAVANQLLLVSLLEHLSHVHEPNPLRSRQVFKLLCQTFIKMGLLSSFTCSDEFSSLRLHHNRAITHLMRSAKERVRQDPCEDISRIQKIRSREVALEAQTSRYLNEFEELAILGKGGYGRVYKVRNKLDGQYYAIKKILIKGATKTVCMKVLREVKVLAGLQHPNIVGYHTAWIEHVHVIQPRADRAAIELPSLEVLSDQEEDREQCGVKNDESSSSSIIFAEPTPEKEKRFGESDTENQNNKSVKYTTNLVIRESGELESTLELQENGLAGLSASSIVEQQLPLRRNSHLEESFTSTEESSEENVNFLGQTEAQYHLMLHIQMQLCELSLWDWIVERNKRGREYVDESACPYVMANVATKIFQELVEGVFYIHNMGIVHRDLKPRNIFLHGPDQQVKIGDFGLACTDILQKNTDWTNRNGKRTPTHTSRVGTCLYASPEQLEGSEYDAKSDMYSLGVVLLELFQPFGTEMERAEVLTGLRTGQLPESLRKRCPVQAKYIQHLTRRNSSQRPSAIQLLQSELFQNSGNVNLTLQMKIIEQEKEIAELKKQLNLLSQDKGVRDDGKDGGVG
# T1 sequence (P36888 27-993): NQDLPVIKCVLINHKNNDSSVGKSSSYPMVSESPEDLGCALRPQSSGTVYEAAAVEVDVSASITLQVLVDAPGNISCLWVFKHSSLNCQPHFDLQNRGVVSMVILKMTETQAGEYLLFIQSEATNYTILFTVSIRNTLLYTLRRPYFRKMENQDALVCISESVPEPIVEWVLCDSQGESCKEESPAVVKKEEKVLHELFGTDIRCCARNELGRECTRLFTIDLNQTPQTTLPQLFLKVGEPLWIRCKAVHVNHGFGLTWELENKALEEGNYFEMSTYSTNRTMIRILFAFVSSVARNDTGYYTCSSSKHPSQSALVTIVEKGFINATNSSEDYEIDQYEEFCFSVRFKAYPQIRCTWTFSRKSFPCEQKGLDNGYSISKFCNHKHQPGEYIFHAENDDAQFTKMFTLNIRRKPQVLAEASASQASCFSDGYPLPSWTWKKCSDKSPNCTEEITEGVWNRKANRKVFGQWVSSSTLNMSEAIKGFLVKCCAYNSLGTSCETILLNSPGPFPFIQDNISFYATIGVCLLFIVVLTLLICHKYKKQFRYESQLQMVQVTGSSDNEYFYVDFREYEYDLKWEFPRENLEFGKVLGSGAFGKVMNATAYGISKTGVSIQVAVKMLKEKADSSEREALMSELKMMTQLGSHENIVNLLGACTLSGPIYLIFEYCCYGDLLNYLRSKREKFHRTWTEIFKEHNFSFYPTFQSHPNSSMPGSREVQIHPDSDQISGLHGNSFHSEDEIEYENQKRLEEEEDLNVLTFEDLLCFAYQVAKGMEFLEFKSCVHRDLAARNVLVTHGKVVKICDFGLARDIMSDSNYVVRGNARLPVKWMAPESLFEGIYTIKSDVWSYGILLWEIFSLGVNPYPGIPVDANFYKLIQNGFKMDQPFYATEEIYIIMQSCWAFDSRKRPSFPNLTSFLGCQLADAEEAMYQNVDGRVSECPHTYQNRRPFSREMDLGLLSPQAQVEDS
# T27 sequence (P48730 whole entry, the tested form may be a part): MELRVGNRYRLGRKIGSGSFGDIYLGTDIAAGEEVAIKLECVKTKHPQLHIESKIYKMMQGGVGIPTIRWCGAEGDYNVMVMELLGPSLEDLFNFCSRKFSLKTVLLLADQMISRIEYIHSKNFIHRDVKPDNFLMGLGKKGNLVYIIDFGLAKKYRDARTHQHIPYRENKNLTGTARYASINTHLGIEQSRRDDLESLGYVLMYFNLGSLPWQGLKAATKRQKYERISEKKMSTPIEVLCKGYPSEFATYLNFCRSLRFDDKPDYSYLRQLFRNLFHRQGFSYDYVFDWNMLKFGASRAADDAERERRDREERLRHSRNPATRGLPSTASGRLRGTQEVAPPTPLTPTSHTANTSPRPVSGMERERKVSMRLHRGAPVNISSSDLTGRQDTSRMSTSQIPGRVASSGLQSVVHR
smiles,measurement,setting,value
"C=CC(=O)Nc1ccc(C(=O)N2CC[C@@H](Nc3ncc(C#N)cn3)C2)cc1 [Compound 4, (R)-N-(4-(3-((5-cyanopyrimidin-2-yl)amino)pyrrolidine-1-carbonyl)phenyl)acrylamide]",inhibition at 1 µM,FLT3,-8%
same,inhibition at 1 µM,NEK11,-5%
same,inhibition at 1 µM,CHK1,3%
same,inhibition at 1 µM,TGFBR2,22%
same,inhibition at 1 µM,RON,-1%
same,inhibition at 1 µM,MARK3,-17%
same,inhibition at 1 µM,RIPK5,0%
same,inhibition at 1 µM,CLK4,-2%
same,inhibition at 1 µM,VEGFR1,8%
same,inhibition at 1 µM,CDK9/CycK,21%
same,inhibition at 1 µM,BMX,-4%
same,inhibition at 1 µM,CK1epsilon,-13%
same,inhibition at 1 µM,IGF1R,-23%
same,inhibition at 1 µM,AKT2,11%
same,inhibition at 1 µM,EPHA4,2%
same,inhibition at 1 µM,GRK2,7%
same,inhibition at 1 µM,TTBK2,3%
same,inhibition at 1 µM,EPHA7,-3%
same,inhibition at 1 µM,MEK1,13%
same,inhibition at 1 µM,PKN3,-2%
same,inhibition at 1 µM,TTBK1,-5%
same,inhibition at 1 µM,EIF2AK3,14%
same,inhibition at 1 µM,HRI,-8%
same,inhibition at 1 µM,FGFR1,3%
same,inhibition at 1 µM,PDGFRalpha,7%
same,inhibition at 1 µM,EPHA2,-5%
same,inhibition at 1 µM,CK1delta,-7%
same,inhibition at 1 µM,CDK5/p25NCK,3%
same,inhibition at 1 µM,MATK,-3%
same,inhibition at 1 µM,TAOK3,6%
same,inhibition at 1 µM,BUB1B,13%
